# Calls of active or inactive are those of the source. No cut-off for these calls is given here.
# Assays:
# [1] = Inhibition of TGFbeta-dependent SMAD2/3 phosphorylation in mouse NIH3T3 cells incubated for 24 hrs by luciferase reporter assay; conditions: NIH3T3, 24 h
# Hep 3B2 [2] = experiment: Growth inhibition of human Hep3B cells incubated for 72 hrs by CCK-8 assay; format: functional
# [3] = biological target: Mothers against decapentaplegic homolog 2 (Homo sapiens) (UniProt Q15796); experiment: Inhibition of TGFbeta-induced SMAD2 phosphorylation at S465/467 residues in serum-starved human Hep3B cells preincubated with compound for 30 mins followed by TGFbeta addition and measured after 30 mins by Western blotting analysis; format: cell-based; conditions: dose 1-10 µM, time 60.0 min
# Hep 3B2 [4] = experiment: Induction of apoptosis in human Hep3B cells at 5 uM incubated for 72 hrs by Annexin V-FITC/PI staining based flow cytometry; format: functional, cell-based
# Hep 3B2 [5] = experiment: Synergistic antiproliferative activity against human Hep3B cells at 1.56 to 3.12 uM in presence of sorafenib; format: functional, cell-based; conditions: dose 1.56-3.12 µM
# Hep 3B2 [6] = experiment: Induction of apoptosis in human Hep3B cells at 10 uM incubated for 48 to 72 hrs in presence of sorafenib by Annexin V-FITC/PI staining based flow cytometry; format: functional, cell-based; conditions: time 48-72 hrs
# Hep 3B2 [7] = experiment: Induction of apoptosis in human Hep3B cells at 10 uM incubated for 48 hrs by Annexin V-FITC/PI staining based flow cytometry; format: functional, cell-based
# Sequence of Mothers against decapentaplegic homolog 2 (Homo sapiens) (Q15796 whole entry): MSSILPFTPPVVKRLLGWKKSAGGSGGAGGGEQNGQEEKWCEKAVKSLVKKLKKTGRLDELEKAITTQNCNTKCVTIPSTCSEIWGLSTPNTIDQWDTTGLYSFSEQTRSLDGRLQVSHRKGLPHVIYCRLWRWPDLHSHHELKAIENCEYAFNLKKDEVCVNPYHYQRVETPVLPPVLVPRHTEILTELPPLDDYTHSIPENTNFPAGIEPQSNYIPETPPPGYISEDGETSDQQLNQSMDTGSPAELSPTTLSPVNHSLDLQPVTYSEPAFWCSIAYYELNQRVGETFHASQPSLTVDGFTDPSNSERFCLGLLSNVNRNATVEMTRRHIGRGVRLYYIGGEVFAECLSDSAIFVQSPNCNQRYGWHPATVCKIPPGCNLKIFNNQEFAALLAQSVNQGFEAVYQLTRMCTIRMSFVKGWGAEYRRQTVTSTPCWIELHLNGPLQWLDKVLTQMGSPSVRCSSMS
SMILES,EC50 [1],GI50 (Hep 3B2 [2]),inhibition [3],Activity (Hep 3B2 [4]),Activity (Hep 3B2 [5]),Activity (Hep 3B2 [6]),Activity (Hep 3B2 [7])
O=S(=O)(Nc1ccc(Cl)cn1)c1c[nH]c2ncccc12,214 nM,2860 nM,,,,,
Cc1cccc(-c2nn3c(c2-c2ccnc4ccc(C(N)=O)cc24)CCC3)n1 [GALUNISERTIB],47.7 nM,1070 nM,Dose-dependent-effect,,,,
CNC(=O)c1cc(Oc2ccc(NC(=O)Nc3ccc(Cl)c(C(F)(F)F)c3)cc2)ccn1,,,,Active,,,
Cc1nc(NS(=O)(=O)c2c[nH]c3ncccc23)ccc1Cl,160 nM,2280 nM,Dose-dependent-effect,,Active; Compound Showed Moderate Activity,Active,Active
COc1ccc(NS(=O)(=O)c2c[nH]c3ncccc23)cc1,534 nM,5710 nM,,,,,

# — ChEMBL document CHEMBL6182878, “Discovery of novel transforming growth factor β type 1 receptor inhibitors through structure-based virtual screening, preliminary structure-activity relationship study, and biological evaluation in hepatocellular carcinoma” (Bioorg Med Chem, 2025)
